Assay results published in article doi:10.1101/2021.04.08.439011v1 (biorxiv, 2021).

Legend:
MAP4K4 = MAP4K4 (Homo sapiens, UniProt O95819); conditions: 0.1 µM; binder
CLK3 = CLK3 (Homo sapiens, UniProt P49761); conditions: 0.1 µM; binder
EGFR(T790M) = EGFR(T790M) (Homo sapiens, UniProt P00533, T790M); conditions: 0.1 µM; binder
PIKFYVE = PIKFYVE (Homo sapiens, UniProt Q9Y2I7); conditions: 0.1 µM; binder
MATK = MATK (Homo sapiens, UniProt P42679); conditions: 0.1 µM; binder
PDPK1 = PDPK1 (Homo sapiens, UniProt O15530); conditions: 0.1 µM; binder
TAOK2 = TAOK2 (Homo sapiens, UniProt Q9UL54); conditions: 0.1 µM; binder
SRPK1 = SRPK1 (Homo sapiens, UniProt Q96SB4); conditions: 0.1 µM; binder
PAK4 = PAK4 (Homo sapiens, UniProt O96013); conditions: 0.1 µM; binder
FLT3(N841I) = FLT3(N841I) (Homo sapiens, UniProt P36888, N841I); conditions: 0.1 µM; binder
SIK1 = SIK1 (Homo sapiens, UniProt P57059); conditions: 0.1 µM; binder
DYRK2 = DYRK2 (Homo sapiens, UniProt Q92630); conditions: 0.1 µM; binder
BRSK1 = BRSK1 (Homo sapiens, UniProt Q8TDC3); conditions: 0.1 µM; binder
FLT3(ITD,D835V) = FLT3(ITD,D835V) (Homo sapiens, UniProt P36888, D835V/ITD); conditions: 0.1 µM; binder
HIPK1 = HIPK1 (Homo sapiens, UniProt Q86Z02); conditions: 0.1 µM; binder
AXL = AXL (Homo sapiens, UniProt P30530); conditions: 0.1 µM; binder
ABL1(Y253F) = ABL1(Y253F) (Homo sapiens, UniProt P00519, Y253F); conditions: phosphorylated; 0.1 µM; binder
YSK4 = YSK4 (Homo sapiens, UniProt Q56UN5); conditions: 0.1 µM; binder
CAMK1 = CAMK1 (Homo sapiens, UniProt Q14012); conditions: 0.1 µM; binder
BMX = BMX (Homo sapiens, UniProt P51813); conditions: 0.1 µM; binder
TGFBR2 = TGFBR2 (Homo sapiens, UniProt P37173); conditions: 0.1 µM; binder
ERBB4 = ERBB4 (Homo sapiens, UniProt Q15303); conditions: 0.1 µM; binder
CDC2L1 = CDC2L1 (Homo sapiens, UniProt P21127); conditions: 0.1 µM; binder
WNK1 = WNK1 (Homo sapiens, UniProt Q9H4A3); conditions: 0.1 µM; binder
PAK6 = PAK6 (Homo sapiens, UniProt Q9NQU5); conditions: 0.1 µM; binder
PIK3CD = PIK3CD (Homo sapiens, UniProt O00329); conditions: 0.1 µM; binder
ALK(C1156Y) = ALK(C1156Y) (Homo sapiens, UniProt Q9UM73, C1156Y); conditions: 0.1 µM; binder
MAP3K15 = MAP3K15 (Homo sapiens, UniProt Q6ZN16); conditions: 0.1 µM; binder
RIPK1 = RIPK1 (Homo sapiens, UniProt Q13546); conditions: 0.1 µM; binder
FLT3(D835H) = FLT3(D835H) (Homo sapiens, UniProt P36888, D835H); conditions: 0.1 µM; binder
TEC = TEC (Homo sapiens, UniProt P42680); conditions: 0.1 µM; binder
Chain of TEC (P42680 whole entry): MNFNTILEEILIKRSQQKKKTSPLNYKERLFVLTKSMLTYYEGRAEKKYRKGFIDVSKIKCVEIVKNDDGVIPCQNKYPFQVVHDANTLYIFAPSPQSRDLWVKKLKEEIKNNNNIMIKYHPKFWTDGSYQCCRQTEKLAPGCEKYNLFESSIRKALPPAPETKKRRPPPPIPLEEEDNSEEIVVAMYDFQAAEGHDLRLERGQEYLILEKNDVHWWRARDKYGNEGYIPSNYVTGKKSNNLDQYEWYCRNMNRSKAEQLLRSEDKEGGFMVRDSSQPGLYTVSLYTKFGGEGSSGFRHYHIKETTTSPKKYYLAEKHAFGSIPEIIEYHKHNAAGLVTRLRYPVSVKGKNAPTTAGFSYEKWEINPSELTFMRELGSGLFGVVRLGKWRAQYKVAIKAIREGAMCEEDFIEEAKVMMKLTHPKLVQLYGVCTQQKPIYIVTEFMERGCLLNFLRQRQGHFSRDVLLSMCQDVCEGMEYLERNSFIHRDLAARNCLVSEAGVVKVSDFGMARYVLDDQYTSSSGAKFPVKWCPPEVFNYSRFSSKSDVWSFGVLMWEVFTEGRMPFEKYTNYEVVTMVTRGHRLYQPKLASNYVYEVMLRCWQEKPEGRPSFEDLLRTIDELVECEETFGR

Chain of CDC2L1 (P21127 whole entry): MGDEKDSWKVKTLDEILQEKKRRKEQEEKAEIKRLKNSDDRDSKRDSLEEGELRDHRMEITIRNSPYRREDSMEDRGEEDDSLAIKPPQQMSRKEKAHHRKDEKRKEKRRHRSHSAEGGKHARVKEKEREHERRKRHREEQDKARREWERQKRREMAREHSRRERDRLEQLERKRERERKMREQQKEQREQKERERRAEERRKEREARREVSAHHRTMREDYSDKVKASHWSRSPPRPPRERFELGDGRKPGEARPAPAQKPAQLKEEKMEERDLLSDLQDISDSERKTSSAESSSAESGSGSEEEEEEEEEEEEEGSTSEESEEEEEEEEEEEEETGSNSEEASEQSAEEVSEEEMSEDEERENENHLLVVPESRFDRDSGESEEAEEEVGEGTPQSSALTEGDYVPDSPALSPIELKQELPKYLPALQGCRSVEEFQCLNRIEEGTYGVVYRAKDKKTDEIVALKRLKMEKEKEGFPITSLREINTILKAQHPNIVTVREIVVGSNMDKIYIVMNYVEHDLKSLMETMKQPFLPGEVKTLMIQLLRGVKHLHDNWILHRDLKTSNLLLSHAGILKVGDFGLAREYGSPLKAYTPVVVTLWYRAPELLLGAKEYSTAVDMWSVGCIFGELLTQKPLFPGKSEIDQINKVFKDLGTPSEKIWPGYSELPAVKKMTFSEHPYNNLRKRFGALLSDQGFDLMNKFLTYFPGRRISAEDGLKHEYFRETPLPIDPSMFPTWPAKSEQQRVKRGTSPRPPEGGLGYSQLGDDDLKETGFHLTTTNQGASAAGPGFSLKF
Chain of BRSK1 (Q8TDC3 whole entry): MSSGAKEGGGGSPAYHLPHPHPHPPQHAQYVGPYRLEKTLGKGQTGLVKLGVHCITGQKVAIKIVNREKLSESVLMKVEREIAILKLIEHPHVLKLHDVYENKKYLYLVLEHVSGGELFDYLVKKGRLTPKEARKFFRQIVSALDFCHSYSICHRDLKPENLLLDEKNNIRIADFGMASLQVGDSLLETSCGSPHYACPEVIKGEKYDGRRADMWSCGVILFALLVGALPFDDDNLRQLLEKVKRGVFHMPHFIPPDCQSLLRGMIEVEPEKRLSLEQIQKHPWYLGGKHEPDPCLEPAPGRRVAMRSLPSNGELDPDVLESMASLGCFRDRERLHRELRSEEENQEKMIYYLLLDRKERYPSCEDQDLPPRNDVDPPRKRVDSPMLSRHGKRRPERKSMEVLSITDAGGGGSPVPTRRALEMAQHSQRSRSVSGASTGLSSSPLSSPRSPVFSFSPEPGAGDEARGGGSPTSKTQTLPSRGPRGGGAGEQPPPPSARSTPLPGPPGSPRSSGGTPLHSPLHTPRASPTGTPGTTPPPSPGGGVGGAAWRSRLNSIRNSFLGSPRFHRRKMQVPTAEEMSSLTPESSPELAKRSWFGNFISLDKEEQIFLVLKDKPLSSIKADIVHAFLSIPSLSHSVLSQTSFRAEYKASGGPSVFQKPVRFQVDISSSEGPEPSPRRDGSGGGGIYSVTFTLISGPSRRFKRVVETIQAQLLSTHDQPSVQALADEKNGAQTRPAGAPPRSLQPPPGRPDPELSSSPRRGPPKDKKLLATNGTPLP
Chain of MAP3K15 (Q6ZN16 whole entry): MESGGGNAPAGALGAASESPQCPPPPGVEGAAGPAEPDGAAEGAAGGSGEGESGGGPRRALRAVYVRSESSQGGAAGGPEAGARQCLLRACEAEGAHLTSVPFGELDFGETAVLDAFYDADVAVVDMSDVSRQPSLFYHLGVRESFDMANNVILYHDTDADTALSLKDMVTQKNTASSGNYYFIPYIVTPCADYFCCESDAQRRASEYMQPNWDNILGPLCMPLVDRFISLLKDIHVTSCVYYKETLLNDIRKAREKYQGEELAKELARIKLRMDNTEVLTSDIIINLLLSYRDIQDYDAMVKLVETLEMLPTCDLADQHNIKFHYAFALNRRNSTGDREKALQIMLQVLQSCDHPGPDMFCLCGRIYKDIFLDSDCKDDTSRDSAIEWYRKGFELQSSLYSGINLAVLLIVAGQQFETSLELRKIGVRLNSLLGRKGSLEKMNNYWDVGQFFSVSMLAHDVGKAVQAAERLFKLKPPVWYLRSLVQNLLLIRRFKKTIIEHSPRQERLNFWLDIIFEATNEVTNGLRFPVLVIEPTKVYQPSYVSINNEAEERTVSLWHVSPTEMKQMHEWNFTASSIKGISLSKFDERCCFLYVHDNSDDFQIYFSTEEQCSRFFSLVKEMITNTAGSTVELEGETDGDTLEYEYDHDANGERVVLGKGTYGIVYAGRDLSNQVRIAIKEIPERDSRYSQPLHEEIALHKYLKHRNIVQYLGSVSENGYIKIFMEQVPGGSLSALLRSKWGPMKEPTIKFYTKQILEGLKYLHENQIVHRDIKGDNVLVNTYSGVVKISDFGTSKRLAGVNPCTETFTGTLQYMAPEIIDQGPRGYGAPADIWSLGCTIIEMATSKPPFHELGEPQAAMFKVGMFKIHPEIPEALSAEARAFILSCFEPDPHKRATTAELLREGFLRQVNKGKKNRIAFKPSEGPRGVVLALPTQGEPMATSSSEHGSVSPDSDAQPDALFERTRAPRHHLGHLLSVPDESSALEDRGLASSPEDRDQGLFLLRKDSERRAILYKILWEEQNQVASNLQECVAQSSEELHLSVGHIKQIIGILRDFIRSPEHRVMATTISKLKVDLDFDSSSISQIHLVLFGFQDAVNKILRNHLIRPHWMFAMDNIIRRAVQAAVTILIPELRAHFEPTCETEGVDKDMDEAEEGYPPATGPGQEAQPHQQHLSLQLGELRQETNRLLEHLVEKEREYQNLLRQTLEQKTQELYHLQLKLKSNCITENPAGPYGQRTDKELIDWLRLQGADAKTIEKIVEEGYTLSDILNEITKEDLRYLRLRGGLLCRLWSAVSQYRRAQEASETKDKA
Chain of CAMK1 (Q14012 whole entry): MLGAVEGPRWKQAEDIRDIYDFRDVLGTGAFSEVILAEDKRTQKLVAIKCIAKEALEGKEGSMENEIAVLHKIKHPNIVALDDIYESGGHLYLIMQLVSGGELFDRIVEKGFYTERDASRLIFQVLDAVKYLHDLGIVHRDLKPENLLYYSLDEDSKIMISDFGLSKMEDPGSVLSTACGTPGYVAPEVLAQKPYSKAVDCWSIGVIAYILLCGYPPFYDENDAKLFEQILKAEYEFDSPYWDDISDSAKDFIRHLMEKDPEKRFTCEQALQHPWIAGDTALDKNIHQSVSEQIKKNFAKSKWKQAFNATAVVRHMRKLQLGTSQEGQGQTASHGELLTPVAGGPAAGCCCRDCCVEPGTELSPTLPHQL
Chain of PAK4 (O96013 whole entry): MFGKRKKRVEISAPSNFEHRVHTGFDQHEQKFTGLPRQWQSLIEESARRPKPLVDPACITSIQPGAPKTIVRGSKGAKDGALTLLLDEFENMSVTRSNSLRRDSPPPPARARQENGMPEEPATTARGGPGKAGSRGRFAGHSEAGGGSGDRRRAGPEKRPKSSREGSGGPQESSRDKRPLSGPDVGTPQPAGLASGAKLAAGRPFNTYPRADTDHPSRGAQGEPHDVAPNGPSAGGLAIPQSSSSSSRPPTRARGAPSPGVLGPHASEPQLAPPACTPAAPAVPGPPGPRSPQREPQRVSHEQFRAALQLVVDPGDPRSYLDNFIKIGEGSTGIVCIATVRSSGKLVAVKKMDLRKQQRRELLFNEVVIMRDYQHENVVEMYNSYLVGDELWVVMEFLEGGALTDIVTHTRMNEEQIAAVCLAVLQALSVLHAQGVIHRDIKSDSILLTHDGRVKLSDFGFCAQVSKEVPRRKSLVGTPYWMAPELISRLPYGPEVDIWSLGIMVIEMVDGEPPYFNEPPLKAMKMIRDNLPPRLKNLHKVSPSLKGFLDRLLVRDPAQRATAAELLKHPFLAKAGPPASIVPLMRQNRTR
Chain of PDPK1 (O15530 whole entry): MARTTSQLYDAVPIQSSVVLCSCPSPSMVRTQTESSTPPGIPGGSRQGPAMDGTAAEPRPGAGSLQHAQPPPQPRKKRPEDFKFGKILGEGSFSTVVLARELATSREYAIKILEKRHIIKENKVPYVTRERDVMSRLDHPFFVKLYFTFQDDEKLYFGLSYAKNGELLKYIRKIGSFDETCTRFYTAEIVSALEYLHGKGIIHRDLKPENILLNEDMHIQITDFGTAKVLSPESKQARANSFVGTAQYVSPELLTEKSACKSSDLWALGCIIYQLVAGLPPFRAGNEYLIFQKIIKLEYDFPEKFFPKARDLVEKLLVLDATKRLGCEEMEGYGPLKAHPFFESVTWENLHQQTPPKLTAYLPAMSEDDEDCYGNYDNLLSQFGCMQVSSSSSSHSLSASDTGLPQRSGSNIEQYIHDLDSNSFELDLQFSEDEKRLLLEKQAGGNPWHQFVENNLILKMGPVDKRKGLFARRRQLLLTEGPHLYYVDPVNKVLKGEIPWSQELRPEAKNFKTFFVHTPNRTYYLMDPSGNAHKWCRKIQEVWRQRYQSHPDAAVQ

Structure (SMILES): CNc1ncc2cc(-c3ccc(-c4cccc(C)n4)cc3Cl)c(=O)n(C[C@H]3OC[C@H](N)CO3)c2n1 [compound 6, G-5555]
- Percent Control (MAP4K4): 100%
- Percent Control (CLK3): 100%
- Percent Control (EGFR(T790M)): 100%
- Percent Control (PIKFYVE): 100%
- Percent Control (MATK): 100%
- Percent Control (PDPK1): 99%
- Percent Control (TAOK2): 99%
- Percent Control (SRPK1): 94%
- Percent Control (PAK4): 100%
- Percent Control (FLT3(N841I)): 100%
- Percent Control (SIK1): 1.4%
- Percent Control (DYRK2): 100%
- Percent Control (BRSK1): 100%
- Percent Control (FLT3(ITD,D835V)): 88%
- Percent Control (HIPK1): 100%
- Percent Control (AXL): 100%
- Percent Control (ABL1(Y253F)): 97%
- Percent Control (YSK4): 70%
- Percent Control (CAMK1): 100%
- Percent Control (BMX): 100%
- Percent Control (TGFBR2): 100%
- Percent Control (ERBB4): 100%
- Percent Control (CDC2L1): 100%
- Percent Control (WNK1): 100%
- Percent Control (PAK6): 92%
- Percent Control (PIK3CD): 53%
- Percent Control (ALK(C1156Y)): 100%
- Percent Control (MAP3K15): 72%
- Percent Control (RIPK1): 100%
- Percent Control (FLT3(D835H)): 89%
- Percent Control (TEC): 100%
